Tests used:
[1] = system: Tyrosine decarboxylase (TDC); experiment: inhibition of decarboxylase activity; type: biochemical; conditions: tyrosine to tyramine by TDC
From the text: Tyrosine decarboxylase (TDC) decarboxylases tyrosine to tyramine.

[2] = system: equine digital blood vessels; experiment: isolated blood vessel work, isometric tension recording
From the text: The coronary band veins and the distal artery were dissected from equine hind limbs obtained from abattoir collections (animals euthanased for non related reasons), cut into rings of approximately 3 mm in length and prepared for isometric tension recording—a method established in the laboratory for looking at endothelium intact responses of equine digital.

ponies = experiment: effect of dietary fructan carbohydrates on normal and laminitic ponies; type: in vivo
From the text: Eleven adult, native breed ponies were used in the diet study; 5 normals and 6 predisposed to laminitis (asymptomatic at the time of the study). A basal hay diet was fed for 2 weeks, prior to the inclusion of inulin (sourced from chicory root; 3 g/kg body weight per day), fed in 3 equal feeds. The daily forage ration also included ⅔ hay, by weight, and ⅓ Readigrass® (to act as a source of amino acids). Fecal and blood samples were taken during both diets to measure amine concentration (by HPLC and LC-MS, respectively) and fecal pH.

[3] = system: streptococci and lactobacilli in equine caecal contents; experiment: in vitro model of carbohydrate overload: enumeration of caecal streptococci and lactobacilli; set-up: species or system horses; conditions: virginiamycin 1 mg/100 ml, with corn starch or inulin
Protocol: Use of an in vitro model of carbohydrate overload to study the change in populations of caecal streptococci and lactobacilli and to establish whether certain species of these bacteria were capable of producing vasoactive amines from amino acids.
Caecal contents from 10 horses were divided into aliquots and incubated anaerobically with either corn starch or inulin (fructan; both 1 g 100 ml). Samples were taken at 6 h intervals over a 24 h period for enumeration of streptococci, lactobacilli and Gram-negative anaerobes by a dilution method onto standard selective growth media. […]
Effects of carbohydrate overload on numbers of (a) streptococci, (b) lactobacilli and (c) Gram-negative anaerobes in equine caecal contents incubated anaerobically in vitro. […] Bacterial numbers in each aliquot at 6 h intervals were determined by serial dilution of caecal contents in sterile RPS plated onto selective growth medium. […]
Effects of virginiamycin and calcium hydrogen-phosphate on numbers of Streptococcus and Lactobacillus spp. in equine caecal contents induced by incubation with starch or inulin. […] Bacterial numbers were measured at 0 and 24 h, expressed as CFU/ml, and the magnitude of the change over this period was calculated by dividing the number of bacteria present at 24 h by the initial figure (geometric mean±s.e.m. of estimates taken from 4 separate experiments).

[4] = inulin diet vs basal hay diet, FIG. 12

Compound: C[C@@](Cc1ccc(O)c(O)c1)(NN)C(=O)O [carbidopa]
- production of tyramine [1]: inhibited

Compound: O=c1c(-c2ccc(O)cc2)coc2cc(O)cc(O)c12 [genestin]
- reduction of contraction of digital veins in response to vasoactive amines ([2]; flavonoid added to the medium, response to Tryptamine, FIG. 15): 30%

Compound: inulin
- signs of laminitis (ponies; inulin 3 g/kg body weight per day in 3 feeds, 5 normal and 6 laminitis-predisposed ponies): No animal showed any signs of laminitis
- increase in tryptamine concentration (ponies; [4]): 58.6%
- increase in tyramine concentration (ponies; [4]): 23.3%

Compound: virginiamycin
- effect on carbohydrate-induced increases in numbers of streptococci and lactobacilli [3]: abrogated

Compound: CC(=O)N[C@@H](CS)C(=O)O [NAC, N-acetyl cysteine]
- relaxation of isolated digital blood vessels ([2]; antioxidant added to the medium, vs control, FIG. 14): increase the relaxation above that of the control
- contraction of digital veins in response to vasoactive amines ([2]; pre incubation in the medium, response to Tryptamine, FIG. 15): reduced contraction

Compound: NC(CO)C(=O)NNCc1ccc(O)c(O)c1O (stereo not drawn) [benserazide]
- production of tyramine [1]: inhibited

Source: US20090232853A1, “TREATMENT OF LAMINITIS” (priority 2005, published 2009)
